Target: T1, Human Polθ polymerase domain (aa1820-2590) (Homo sapiens, UniProt O75417)
T1 construct: Human Polθ polymerase domain (aa1820-2590) was expressed in E. coli; made in house; host or cells: E. coli
T1 sequence (O75417 1820-2590): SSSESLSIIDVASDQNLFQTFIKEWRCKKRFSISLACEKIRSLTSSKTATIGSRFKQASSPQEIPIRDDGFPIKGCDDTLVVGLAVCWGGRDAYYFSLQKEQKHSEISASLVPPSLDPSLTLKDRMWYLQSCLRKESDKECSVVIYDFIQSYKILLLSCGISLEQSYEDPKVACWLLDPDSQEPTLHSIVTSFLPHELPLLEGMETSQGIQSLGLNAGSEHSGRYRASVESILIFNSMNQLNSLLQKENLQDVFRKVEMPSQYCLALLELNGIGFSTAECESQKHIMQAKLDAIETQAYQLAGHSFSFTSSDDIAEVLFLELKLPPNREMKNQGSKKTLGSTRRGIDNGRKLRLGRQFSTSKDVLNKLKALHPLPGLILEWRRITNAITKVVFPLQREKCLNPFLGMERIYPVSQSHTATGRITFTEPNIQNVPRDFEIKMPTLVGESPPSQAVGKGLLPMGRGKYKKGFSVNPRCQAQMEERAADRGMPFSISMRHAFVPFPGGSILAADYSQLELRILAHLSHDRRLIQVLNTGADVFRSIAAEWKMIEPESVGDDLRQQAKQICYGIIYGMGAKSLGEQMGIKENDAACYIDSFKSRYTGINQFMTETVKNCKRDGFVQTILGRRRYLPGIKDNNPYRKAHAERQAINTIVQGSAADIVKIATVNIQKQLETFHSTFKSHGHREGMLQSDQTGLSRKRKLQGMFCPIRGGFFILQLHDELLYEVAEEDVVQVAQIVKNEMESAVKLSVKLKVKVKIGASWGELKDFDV
Experiment: Polθ Polymerase Domain Kinact/KI Assay (PicoGreen)
Assay type: biochemical
Conditions: 0.8 nM Polθ, 100 nM DNA substrate, kobs vs [I] fit for 2-step covalent inhibitor
Procedure, shortened: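 Kinact and KI derive from fitting kobs versus [I], where kobs were fitted from EDTA-stopped PicoGreen time courses (up to 60 min) in Tris pH 7.5 buffer with 1% DMSO, 0.8 nM enzyme, 100 nM DNA and […].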

Kinact/Kl | SMILES
2.95e+06 M⁻¹ s⁻¹ | C=C(CN(C)C)C(=O)N1CC(COCCN2C[C@H]3CC(=O)N(c4cc(C(F)(F)F)cc(C)n4)[C@@H]3C(=O)N(C)c3cccc(Cl)c32)C1 [Example 162, (3aR,11aS)-6-chloro-5-(2-((1-(2-((dimethylamino)methyl)acryloyl)azetidin-3-yl)methoxy)ethyl)-10-methyl-1-(6-methyl-4-(trifluoromethyl)pyridin-2-yl)-1,3a,4,5,10,11a-hexahydro-2H-benzo[b]pyrrolo[2,3-f][1,4]diazocine-2,11(3H)-dione]
580000 M⁻¹ s⁻¹ | C=CC(=O)N1CC2(CN(CCN3C[C@H]4CC(=O)N(c5cc(C(F)(F)F)cc(C)n5)[C@@H]4C(=O)N(C)c4cccc(C)c43)CCN2)C1 [Example 114, (3aR,11aS)-5-(2-(2-acryloyl-2,5,8-triazaspiro[3.5]nonan-8-yl)ethyl)-6,10-dimethyl-1-(6-methyl-4-(trifluoromethyl)pyridin-2-yl)-1,3a,4,5,10,11a-hexahydro-2H-benzo[b]pyrrolo[2,3-f][1,4]diazocine-2,11(3H)-dione]
1.54e+06 M⁻¹ s⁻¹ | C=CC(=O)N1CC(N2CCC(F)(CN3C[C@H]4CC(=O)N(c5cc(C(F)(F)F)cc(C)n5)[C@@H]4C(=O)N(C)c4cccc(C)c43)CC2)C1 [Example 94, (3aR,11aS)-5-((1-(1-acryloylazetidin-3-yl)-4-fluoropiperidin-4-yl)methyl)-6,10-dimethyl-1-(6-methyl-4-(trifluoromethyl)pyridin-2-yl)-1,3a,4,5,10,11a-hexahydro-2H-benzo[b]pyrrolo[2,3-f][1,4]diazocine-2,11(3H)-dione]
200000 M⁻¹ s⁻¹ | C=CC(=O)N1C[C@H]2CCN(CCN3C[C@H]4CC(=O)N(c5cc(C(F)(F)F)cc(C)n5)[C@@H]4C(=O)N(C)c4cccc(F)c43)C[C@H]2C1 (relative stereo) [Example 25a, (3aR,11aS)-5-(2-((3aS/R,7aS/R)-2-acryloyloctahydro-5H-pyrrolo[3,4-c]pyridin-5-yl)ethyl)-6-fluoro-10-methyl-1-(6-methyl-4-(trifluoromethyl)pyridin-2-yl)-1,3a,4,5,10,11a-hexahydro-2H-benzo[b]pyrrolo[2,3-f][1,4]diazocine-2, 11(3H)-dione]
1.82e+06 M⁻¹ s⁻¹ | C=C(CN(C)C)C(=O)N1CC(F)(COCCN2C[C@H]3CC(=O)N(c4cc(C(F)(F)F)cc(C)n4)[C@@H]3C(=O)N(C)c3cccc(Cl)c32)C1 [Example 305, (3aR,11aS)-6-chloro-5-(2-((1-(2-((dimethylamino)methyl)acryloyl)-3-fluoroazetidin-3-yl)methoxy)ethyl)-10-methyl-1-(6-methyl-4-(trifluoromethyl)pyridin-2-yl)-1,3a,4,5,10,11a-hexahydro-2H-benzo[b]pyrrolo[2,3-f][1,4]diazocine-2,11(3H)-dione]
1.71e+06 M⁻¹ s⁻¹ | C=CC(=O)N1CC(N2CCN(CCN3C[C@H]4CC(=O)N(c5cc(C(F)(F)F)cc(C)n5)[C@@H]4C(=O)N(C)c4cccc(Cl)c43)CC2)C1 [Example 12, (3aR,11aS)-5-(2-(4-(1-acryloylazetidin-3-yl)piperazin-1-yl)ethyl)-6-chloro-10-methyl-1-(6-methyl-4-(trifluoromethyl)pyridin-2-yl)-1,3a,4,5,10,11a-hexahydro-2H-benzo[b]pyrrolo[2,3-f][1,4]diazocine-2,11(3H)-dione]
690000 M⁻¹ s⁻¹ | C=CC(=O)N1Cc2cc(CN3C[C@H]4CC(=O)N(c5cc(C(F)(F)F)cc(C)n5)[C@@H]4C(=O)N(C)c4cccc(C)c43)cnc2[C@H]1CC#N (racemic) [Example 321b, 2-((R/S)-6-acryloyl-3-(((3aR,11aS)-6,10-dimethyl-1-(6-meth-yl-4-(trifluorometh-yl)pyridin-2-yl)-2,11-dioxo-1,2,3,3a, 4,10,11,11a-octa-hydro-5H-benzo[b]pyrrolo[2,3-f][1,4]diazocin-5-yl)meth-yl)-6,7-dihydro-5H-pyrrolo[3,4-b]pyr-idin-7-yl)acetonitrile]

SMILES | Kinact/Kl
C=CC(=O)N1CC2(CN(CCN3C[C@H]4CC(=O)N(c5cc(C(F)(F)F)cc(C)n5)[C@@H]4C(=O)N(C)c4cccc(Cl)c43)C[C@H]3COCCN32)C1 (racemic) [Example 26b, (3aR,11aS)-5-(2-((S/R)-1-acryloyl-tetrahydro-1′H-spiro[azetidine-3,6′-pyrazino[2,1-c][1,4]oxazin]-8′(7′H)-yl)ethyl)-6-chloro-10-methyl-1-(6-methyl-4-(trifluoromethyl)pyridin-2-yl)-1,3a,4,5,10,11a-hexahydro-2H-benzo[b]pyrrolo[2,3-f][1,4]diazocine-2, 11(3H)-dione] | 1.29e+06 M⁻¹ s⁻¹

Source: patent US20250230165A1, “HETEROCYCLIC COMPOUNDS FOR USE IN THE TREATMENT OF CANCER” (ARTIOS PHARMA LIMITED, priority 2021, published 2025)
